Experimental data reported in patent US4451476A (priority 1983, dated 1984).
Values after ≈ are worked out from the molar mass of the structure shown. “Also recorded” adds a separate entry of the source.

Key:
[1] = tested on: human rhinovirus serotypes; type: cell-based
[2] = tested on: picornaviruses and enteroviruses; type: cell-based
Echo-9 = test: In vitro MIC against Echo-9; type: cell-based
rhinovirus Type 2 = test: microbe, parasite or virus in culture; type: cell-based; details: for MIC: Enterovirus, read-out: MIC vs. rhinovirus Type 2 in vitro
Echo-11 = test: microbe, parasite or virus in culture; type: cell-based; details: read-out: MIC vs. Echo-11
poliovirus [3] = type: in vivo, mice; details: parenteral medication
poliovirus [4] = test: animal or person; type: in vivo, mice
polio-2 virus = test: microbe, parasite or virus in culture; type: cell-based; details: read-out: MIC vs. polio-2 virus
Polio-3 = test: microbe, parasite or virus in culture; type: cell-based; details: read-out: MIC vs. Polio-3

Row | Compound | MIC (rhinovirus Type 2) [µg/mL] | other results
1 | COc1ccc(OCCCCCCCc2cc(C)no2)c(Cl)c1 [Example 2, 5-[7-(2-Chloro-4-methoxyphenoxy)heptyl]-3-methylisoxazole] |  | human rhinovirus serotypes against which active [1]: 24 of 27; most common human rhinovirus serotypes against which active [1]: six of the seven; in vitro activity against picornaviruses and enteroviruses [2]: in vitro activity against a variety of picornaviruses and enteroviruses; also recorded: active against other picornaviruses and enterviruses; MIC (Echo-9): 0.15 µg/mL (≈ 0.444 µM); times as active in vitro against rhinovirus Type 2 as the corresponding 2-chloro-4-methoxyphenoxy compounds of U.S. Pat. No. 4,268,678 (rhinovirus Type 2): at least 15 times; MIC (Echo-11): 0.04 µg/mL (≈ 0.118 µM); challenge doses of poliovirus at which death was prevented (poliovirus [3]; mice): ≤ 200 LD50; prevention of death in mice infected with poliovirus (poliovirus [3]; challenge doses as high as 200 LD50): prevented death; minimal effective dose (poliovirus [4]; Enterovirus C, in Mus musculus, po, 336 h, read-out: minimal inhibitory dose): 31 mg/kg; in vivo activity against poliovirus infections in mice (poliovirus [4]): active in vivo; in vivo activity against poliovirus infections in mice (poliovirus [4]; listed as 5-[7-(2-chloro-4-methoxyphenoxy)heptyl]-3-methylisoxazole): in vivo activity against poliovirus infections in mice; MIC (polio-2 virus): 0.15 µg/mL (≈ 0.444 µM); MIC (Polio-3): 0.08 µg/mL (≈ 0.237 µM)
2 | COc1ccc(OCCCCCCc2cc(C)no2)c(Cl)c1 [Example 3, 5-[6-(2-Chloro-4-methoxyphenoxy)hexyl]-3-methylisoxazole] | 0.8 (≈ 2.47 µM) | 
3 | COc1ccc(OCCCCCc2cc(C)no2)c(Cl)c1 [Example 4, 5-[5-(2-Chloro-4-methoxyphenoxy)pentyl]-3-methylisoxazole] | 0.4 (≈ 1.29 µM) | 
4 | Cc1cc(CCCCCCCOc2ccc(C#N)cc2)on1 [Example 5, 5-[7-(4-Cyanophenoxy)heptyl]-3-methylisoxazole] |  | activity vs. rhinovirus Type 2 in vitro (rhinovirus Type 2): inactive
5 | Cc1cc(CCCCCCOc2ccc(C#N)cc2)on1 [Example 6, 5-[6-(4-Cyanophenoxy)hexyl]-3-methylisoxazole] | 3.1 (≈ 10.9 µM) | 
6 | Cc1cc(CCCCCOc2ccc(C#N)cc2)on1 [Example 7, 5-[5-(4-Cyanophenoxy)pentyl]-3-methylisoxazole] |  | activity vs. rhinovirus Type 2 in vitro (rhinovirus Type 2): inactive
7 | Cc1cc(CCCCCCCOc2ccc(C(=O)OC(C)(C)C)cc2)on1 [Example 8, 5-[7-(4-Tertiary-butyloxycarbonylphenoxy)heptyl]-3-methylisoxazole] | 6.2 (≈ 16.6 µM) | 
8 | Cc1cc(CCCCCCCCOc2ccc(C#N)cc2)on1 [Example 10, 5-[8-(4-Cyanophenoxy)octyl]-3-methylisoxazole] |  | activity vs. rhinovirus Type 2 in vitro (rhinovirus Type 2): inactive
9 | Cc1cc(CCCCCCCOc2ccc(OC(C)C)cc2)on1 [Example 11, 3-Methyl-5-[7-(4-isopropoxyphenoxy)heptyl]isoxazole] | 0.65 (≈ 1.96 µM) | 
10 | Cc1cc(CCCCCCCOc2ccc(C(C)C)cc2)on1 [Example 12, 3-Methyl-5-[7-(4-isopropylphenoxy)heptyl]isoxazole] | 0.98 (≈ 3.11 µM) | 
11 | Cc1cc(CCCCCCCOc2ccc(Cl)cc2)on1 [Example 14, 3-Methyl-5-[7-(4-chlorophenoxy)heptyl]isoxazole] | 1.5 (≈ 4.87 µM) | MIC (polio-2 virus): 0.4 µg/mL (≈ 1.3 µM)
12 | Cc1ccc(OCCCCCCCc2cc(C)no2)c(Cl)c1 [Example 15, 5-[7-(2-Chloro-4-methylphenoxy)heptyl]-3-methylisoxazole] | 1.2 (≈ 3.73 µM) | MIC (polio-2 virus): 0.82 µg/mL (≈ 2.55 µM)
13 | Cc1cc(CCCCCCCOc2ccc(C(=O)O)cc2)on1 [Example 16, 5-[7-(4-Carboxyphenoxy)heptyl]-3-methylisoxazole] | 10 (≈ 31.5 µM) | 
14 | Cc1cc(CCCCCOc2ccc(C(=O)O)cc2)on1 [Example 17, 5-[5-(4-Carboxyphenoxy)pentyl]-3-methylisoxazole] | 12.5 (≈ 43.2 µM) | 
15 | Cc1cc(CCCCCCCOc2cccc(C(=O)O)c2)on1 [Example 19, 5-[7-(3-Carboxyphenoxy)heptyl]-3-methylisoxazole] |  | activity vs. rhinovirus Type 2 in vitro (rhinovirus Type 2): inactive
16 | Cc1cc(CCCCCCCCOc2ccc(C(=O)O)cc2)on1 [Example 20, 5-[8-(4-Carboxyphenoxy)octyl]-3-methylisoxazole] |  | activity vs. rhinovirus Type 2 in vitro (rhinovirus Type 2): inactive
17 | CCOC(=O)c1ccc(OCCCCCCCc2cc(C)no2)cc1 [Example 22, 5-[7-(4-Ethoxycarbonylphenoxy)heptyl]-3-methylisoxazole] | 0.025 (≈ 0.0724 µM) | 
18 | CCOC(=O)c1ccc(OCCCCCc2cc(C)no2)cc1 [Example 23, 5-[5-(4-Ethoxycarbonylphenoxy)pentyl]-3-methylisoxazole] | 0.015 (≈ 0.0473 µM) | 

Row | Compound | MIC (rhinovirus Type 2) [µg/mL] | other results
19 | CCOC(=O)c1ccc(OCCCCCCc2cc(C)no2)cc1 [Example 24, 5-[6-(4-Ethoxycarbonylphenoxy)hexyl]-3-methylisoxazole] | 0.025 (≈ 0.0754 µM) | 
20 | CCOC(=O)c1ccc(OCCCCCCCCc2cc(C)no2)cc1 [Example 25, 5-[8-(4-Ethoxycarbonylphenoxy)octyl]-3-methylisoxazole] | 0.05 (≈ 0.139 µM) | 
21 | CCOC(=O)c1cccc(OCCCCCCCc2cc(C)no2)c1 [Example 26, 5-[7-(3-Ethoxycarbonylphenoxy)heptyl]-3-methylisoxazole] | 1.6 (≈ 4.63 µM) | 
22 | Cc1cc(CCCCCCCOc2ccc(C(=O)OC(C)C)cc2)on1 [Example 27, 5-[7-(4-Isopropyloxycarbonylphenoxy)heptyl]-3-methylisoxazole] | 0.23 (≈ 0.64 µM) | 
23 | CCCOC(=O)c1ccc(OCCCCCCCc2cc(C)no2)cc1 [Example 28, 5-[7-(4-Propyloxycarbonylphenoxy)heptyl]-3-methylisoxazole] | 0.07 (≈ 0.195 µM) | 
24 | COC(=O)c1ccc(OCCCCCCCc2cc(C)no2)cc1 [Example 29, 5-[7-(4-Methoxycarbonylphenoxy)heptyl]-3-methylisoxazole] | 3 (≈ 9.05 µM) | 
25 | CCOC(=O)c1ccc(OCCCCc2cc(C)no2)cc1 [Example 30, 5-[4-(4-Ethoxycarbonylphenoxy)butyl]-3-methylisoxazole] | 3.1 (≈ 10.2 µM) | 
26 | CC(=O)c1ccc(OCCCCCCCc2cc(C)no2)cc1 [Example 31, 5-[7-(4-Acetylphenoxy)heptyl]-3-methylisoxazole] | 1.6 (≈ 5.07 µM) | 
27 | CCC(=O)c1ccc(OCCCCCCCc2cc(C)no2)cc1 [Example 32, 5-[7-(4-Propionylphenoxy)heptyl]-3-methylisoxazole] | 1.7 (≈ 5.16 µM) | 
28 | Cc1cc(CCCCCCCOc2ccc(C(=O)NN)cc2)on1 [Example 33, 5-[7-(4-Hydrazinocarbonylphenoxy)heptyl]-3-methylisoxazole] | 0.64 (≈ 1.93 µM) | 
29 | Cc1cc(CCCCCCCOc2ccc(C(N)=O)cc2)on1 [Example 34, 5-[7-(4-Carbamylphenoxy)heptyl]-3-methylisoxazole] |  | activity vs. rhinovirus Type 2 in vitro (rhinovirus Type 2): not active
30 | Cc1cc(CCCCCCCOc2ccc(C(=O)N(C)C)cc2)on1 [Example 35(b), N,N-dimethyl-4-[7-(3-methyl-5-isoxazolyl)heptyloxy]benzamide] |  | MIC (polio-2 virus): 2.5 µg/mL (≈ 7.26 µM)
31 | CCC(=NO)c1ccc(OCCCCCCCc2cc(C)no2)cc1 [Example 36, 5-[7-(4-Propionylphenoxy)heptyl]-3-methylisoxazole oxime] | 2.6 (≈ 7.55 µM) | MIC (polio-2 virus): 0.2 µg/mL (≈ 0.581 µM)
32 | Cc1cc(CCCCCCCOc2ccc([N+](=O)[O-])cc2)on1 [Example 37(b), 3-methyl-5-[7-(4-nitrophenoxy)heptyl]isoxazole] |  | MIC (polio-2 virus): 1.5 µg/mL (≈ 4.71 µM)
33 | COc1ccc(OCCCCCCCc2cc(C)no2)c([N+](=O)[O-])c1 [Example 38, 3-Methyl-5-[7-(2-nitro-4-methoxyphenoxy)heptyl]isoxazole] | 0.3 (≈ 0.861 µM) | MIC (polio-2 virus): 0.17 µg/mL (≈ 0.488 µM)
34 | Cc1cc(CCCCCCCc2ccc(C#N)cc2)on1 [Example 39(f), 5-[7-(4-Cyanophenyl)heptyl]-3-methylisoxazole] | 11.2 (≈ 39.7 µM) | 
35 | COc1ccc(OCCCCCc2cc(C)on2)c(Cl)c1 [Example 41, 3-[5-(2-Chloro-4-methoxyphenoxy)pentyl]-5-methylisoxazole] | 0.7 (≈ 2.26 µM) | MIC (polio-2 virus): 1.4 µg/mL (≈ 4.52 µM)
